According to the supplement of paper PMC3974653:
Counter-ions that a name gives are not always drawn.

System: MTT (mouse pheochromocytoma)
Test: IC50 of cell viability (ATP content)
Details: (24 or 48 h)
Method in brief: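 The IC50 was fitted with a four-parameter logistic equation to normalised CellTiter-Glo ATP luminescence from MTT mouse pheochromocytoma cells. These cells, in white 1536-well plates, had been treated for 24 or 48 hrs with library compounds at 8 final concentrations between 0.5 nM and 46 µM, and luminescence was read after 15 minutes. Positive-control wells served as 100% and DMSO wells as 0%.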

Row | IC50 of cell viability [µM] | SMILES
1 | > 46 | C[C@H]1[C@H](NC(=O)/C(=N/OC(C)(C)C(=O)O)c2csc(N)n2)C(=O)N1[S+](=O)([O-])O [Aztreonam]
2 | > 46 | CN1CCN(C2=Nc3ccccc3Cc3ccccc32)CC1 [Perlapine]
3 | > 46 | CC1CC(O)CC(C)(C)C1 (centres undefined) [3,3,5-TRIMETHYLCYCLOHEXANOL]
4 | > 46 | CC(=O)NC[C@@H]1CN(c2ccc(N3CCOCC3)c(F)c2)C(=O)O1 [Linezolid]
5 | > 46 | COc1cc2c(c(OC)c1OC)-c1c(cc3c(c1OC)OCO3)C[C@@H](C)[C@](C)(O)C2 [Gomisin A]
6 | > 46 | CCCC(CCC)C(=O)O [Valproic acid]
7 | > 46 | CCOC(=O)O[C@@]1(CC[C@@H]2[C@@H]3CC\C4=C\C(=O)\C=C/[C@@]4(C)[C@H]3[C@H](O)C[C@@]12C)C(=O)COC(=O)CC [Prednicarbate]
8 | > 46 | C#C[C@]1(OC(C)=O)CC[C@H]2[C@@H]3CCC4=C/C(=N/O)CC[C@@H]4[C@H]3CC[C@@]21CC [NORGESTIMATE]
9 | > 46 | c1ccc2sc(SN3CCOCC3)nc2c1 [MORPHOLINYLMERCAPTOBENZOTHIAZOLE]
10 | > 46 | CCC(C)C(N)C(=O)O (centres undefined) [ISOLEUCINE]
11 | > 46 | O=C(CCCCC(=O)Nc1c(I)cc(I)c(C(=O)O)c1I)Nc1c(I)cc(I)c(C(=O)O)c1I [Iodipamide]
12 | > 46 | Clc1ccc(CC[C@H](Cn2ccnc2)Sc2c(Cl)cccc2Cl)cc1 [Butoconazole nitrate]
13 | > 46 | CCCC(=O)Nc1ncnc2c1ncn2C1OC2COP(=O)(O)OC2C1OC(=O)CCC (centres undefined) [BUCLADESINE]
14 | > 46 | CC(C)c1cc2c(cc1[S+](=O)([O-])O)[C@@]1(C)CCC[C@@](C)(C(=O)O)[C@@H]1CC2 [ECABET SODIUM]
15 | > 46 | CN(C)\C1=C(/C)N(C)N(C2=CC=CC=C2)C1=O [4-Dimethylaminoantipyrine]
16 | > 46 | CC(=O)O[C@@H]1C[C@]2(C)[C@H](C[C@@H](O)[C@H]3[C@@]4(C)CC[C@@H](O)[C@@H](C)[C@@H]4CC[C@@]32C)/C1=C(\CCC=C(C)C)C(=O)[O-].[Na+] [Fusidic acid sodium salt]
17 | > 46 | CCc1cccc(N(C)C(=N)Nc2cccc3ccccc23)c1.Cl [CNS-1102]
18 | > 46 | O=C(OC[C@@H]1O[C@@](O)(COC(=O)c2cccnc2)[C@H](OC(=O)c2cccnc2)[C@H]1OC(=O)c1cccnc1)c1cccnc1 [NICOFURANOSUM]
19 | > 46 | CC(C)(C)C(=O)OCOC(=O)[C@@H]1[N@]2[C@@H](SC1(C)C)[C@H](NC(=O)[C@@H](N)C3=CC=CC=C3)C2=O [Pivampicillin]

Row | IC50 of cell viability [µM] | SMILES
20 | > 46 | CC(=O)CCC(=O)[O-] [Calcium Levulinate]
21 | > 46 | CNC(=N)NC(=O)Nc1c(C)cccc1C [Lidamidine]
22 | > 46 | C[C@@]12CC(O)C3C(CCC/4=C/C(=O)/C=C\[C@]34C)C1CC[C@]2(O)C(=O)CO (some centres undefined) [PREDNISOLONE]
23 | > 46 | CC1OC(OC2CCC3(C)C(CCC4C3CC(O)C3(C)C(C5=CC(=O)OC5)CCC43O)C2)CC(O)C1OC1CC(O)C(OC2CC(O)C(OC3OC(CO)C(O)C(O)C3O)C(C)O2)C(C)O1 (centres undefined) [DESLANOSIDE]
24 | > 46 | CN(C)CC/C=C1\c2ccccc2CSc2ccccc21 [Dosulepin hydrochloride]
25 | > 46 | COC(=O)C(CN)c1c[nH]c2ccc(OC)cc12 (centres undefined) [Indorenate hydrochloride]
26 | > 46 | c1ccc(OCc2ccc(CCCN3CCOCC3)cc2)cc1 [FOMOCAINUM]
27 | > 46 | C=CC(N)CCC(=O)O (centres undefined) [VIGABATRIN]
28 | > 46 | CC1(C)SC2C(NC(=O)C(C(=O)[O-])c3ccccc3)C(=O)N2C1C(=O)[O-].[Na+].[Na+] (centres undefined) [CARBENICILLIN DISODIUM]
29 | > 46 | CNC(=O)C(N)CSC(C)C1=C(C)C2=Cc3c(C(C)SCC(N)C(=O)NC)c(C)c4[n]3[Fe]35[n]6c(c(C)c(CCC(=O)O)c6=CC6=[N+]3C(=C4)C(C)=C6CCC(=O)O)=CC1=[N+]25 (centres undefined) [CYTOCHROME C]
30 | > 46 | Nc1c(NC/C=C\COc2cc(CN3CCCCC3)ccn2)c(=O)c1=O [PIBUTIDINE HYDROCHLORIDE]
31 | > 46 | Nc1nc(N)nc(-c2cc(Cl)ccc2Cl)n1 [IRSOGLADINE MALEATE]
32 | > 46 | O=C(O)COc1ccc(C(=O)c2cccs2)c(Cl)c1Cl [ACIDUM TIENILICUM]
33 | > 46 | CC(C)C(=O)c1c(C(C)C)nn2ccccc12 [Ibudilast]
34 | > 46 | N#C/C(=C1/SC[C@@H](c2ccc(Cl)cc2Cl)S1)n1ccnc1 [Luliconazole]
35 | > 46 | CN(C)CCCN1c2ccccc2Sc2ccc(C(F)(F)F)cc21.Cl [TRIFLUPROMAZINE HYDROCHLORIDE]
36 | > 46 | O=C(O)COc1ccc(C(=O)c2cccs2)c(Cl)c1Cl [Ticrynafen]
37 | > 46 | CNCC(=O)NC(CCCNC(=N)N)C(=O)NC(C(=O)NC(Cc1ccc(O)cc1)C(=O)NC(C(=O)NC(Cc1cnc[nH]1)C(=O)N1CCCC1C(=O)NC(C)C(=O)O)C(C)C)C(C)C (centres undefined) [SARALASIN ACETATE]
38 | > 46 | CCCCCCCCCCCCCCCCCC[N+](C)(C)CCC[Si](OC)(OC)OC

Row | IC50 of cell viability [µM] | SMILES
39 | > 46 | NCCCCC(NC(=O)C1CCCN1C(=O)C1CSSCC(N)C(=O)NC(Cc2ccccc2)C(=O)NC(Cc2ccccc2)C(=O)NC(CCC(N)=O)C(=O)NC(CC(N)=O)C(=O)N1)C(=O)NCC(N)=O (centres undefined) [FELYPRESSIN]
40 | > 46 | C[Si](C)(C)O[Si](C)(C)C [Disiloxane, hexamethyl-]
41 | > 46 | O=C(O)c1cc2ccccc2c(Cc2c(O)c(C(=O)O)cc3ccccc23)c1O [Pamoic acid]
42 | > 46 | CCCCCCCCCCCCCCCC(=O)OCC(NC(=O)C(Cl)Cl)C(O)c1ccc([N+](=O)[O-])cc1 (centres undefined) [Chloramphenicol palmitate]
43 | > 46 | CCCCCCCCCCCCOCCCN [LAURIXAMINUM]
44 | > 46 | Cc1cc(-n2c(=O)[nH]c(=O)n(C)c2=O)ccc1Oc1ccc([S+](=O)([O-])C(F)(F)F)cc1 [Toltrazuril sulfone]
45 | > 46 | CC1(C)OC2CO[C@]3(CO[S+](N)(=O)[O-])OC(C)(C)OC3C2O1 (some centres undefined) [TOPIRAMATE]
46 | > 46 | O=C(O)c1cc(O)nc(O)n1 [Orotic acid]
47 | > 46 | Cn1ccnc1S [Methimazole]
48 | > 46 | Sc1nc2ccccc2s1 [2-Mercaptobenzothiazole]
49 | > 46 | COC(c1ccccc1)(c1ccccc1)C(Oc1nc(C)cc(C)n1)C(=O)O (centres undefined) [AMBRISENTAN]
50 | > 46 | Cc1ccccc1OCC(O)CO (centres undefined) [MEPHENESIN]
51 | > 46 | Cc1nc(Nc2ncc(C(=O)Nc3c(C)cccc3Cl)s2)cc(N2CCN(CCO)CC2)n1 [DASATINIB]
52 | > 46 | N[S+](=O)([O-])c1cc2c(cc1C(F)(F)F)N[C@H](Cc1ccccc1)N[S+]2(=O)[O-] [Bendroflumethiazide]
53 | > 46 | CC[C@@]1(O)CC2CN(CCC3=C([NH]C4=CC=CC=C34)[C@](C2)(C(=O)OC)C5=C(OC)C=C6N(C)C7[C@](O)([C@H](O)[C@]8(CC)\C=C/CN9CC[C@@]7([C@H]89)C6=C5)C(N)=O)C1 (some centres undefined) [Vindesine Sulfate Salt]
54 | > 46 | C=CCc1ccccc1OCC(O)CNC(C)C (centres undefined) [ALPRENOLOL]
55 | > 46 | N#C/C(=C1/SCC(c2ccccc2Cl)S1)n1ccnc1 (centres undefined) [LANOCONAZOLE]
56 | > 46 | CCCCCCCCCCCCCCCC(=O)O [Hexadecanoic acid]
57 | > 46 | O=C([O-])/C=C/C(O)c1ccc(Cl)cc1.[Na+] (centres undefined) [NCS-356]

Row | SMILES | IC50 of cell viability [µM]
58 | O=CC=O [Glyoxal] | > 46
59 | CC(C)(C)CC(C)(C)c1ccc(O)cc1 [4-(1,1,3,3-Tetramethylbutyl)phenol] | > 46
60 | CC1=NN=C2C\N=C(C3=CC=CC=C3Cl)/C4=C(SC(=C4)Br)[N]12 [Brotizolam] | > 46
61 | Nc1ccncc1 [4-AMINOPYRIDINE] | > 46
62 | COc1ccc2[nH]cc(CCN(C(C)C)C(C)C)c2c1 [5-Methoxy-N,N-diisopropyltryptamine] | > 46
63 | CCCSc1cc(OC)c(CCN)cc1OC | > 46
64 | CC[N+](C)(CC)CCOC(=O)C(O)(c1ccccc1)c1ccccc1 [METHYLBENACTYZIUM BROMIDE] | > 46
65 | ClC/1=C(Cl)/[C@@]2(Cl)[C@H]3[C@H]4C[C@H]([C@@H]5O[C@H]45)[C@H]3[C@]1(Cl)C2(Cl)Cl [Dieldrin] | > 46
66 | C1CCC(NC2CCCCC2)CC1 [Dicyclohexylamine] | > 46
67 | Clc1ccc(Cl)cc1 [PARADICHLOROBENZENE] | > 46
68 | C[C@H]1CN(C2CCC(C#N)(c3ccc(F)cc3)CC2)CC[C@@]1(C(=O)O)c1ccccc1 (some centres undefined) [Levocabastine hydrochloride] | > 46
69 | OCCN(CCO)CCO [Trolamine] | > 46
